Results: publication PMC7734625, “Stabilization Strategies for Linear Minigastrin Analogues: Further Improvements via the Inclusion of Proline into the Peptide Sequence” (Journal of Medicinal Chemistry, 2020)
Where two headings read alike, the source gives them in different places. Non-standard residues stand in square brackets, D forms with d. Residues, ends and D or L forms follow the SMILES beside them. *: point of attachment. DOTA = O=C(O)CN1CCN(CC(=O)O)CCN(CC(=O)*)CCN(CC(=O)O)CC1; 1Nal = N[C@@H](Cc1cccc2ccccc12)C(=O)O; NMeNle = CCCC[C@H](NC)C(=O)O

Assays:
[1] = protein binding in human serum (Sephadex G-50 size-exclusion chromatography); type: in vitro ADME
Description: The protein binding in human serum (500 pmol/mL, n = 2) was assessed by Sephadex G-50 size-exclusion chromatography (GE Healthcare Illustra, Little Chalfont, U.K.) for up to 24 h.

[2] = log D, octanol/PBS distribution; type: physicochemical; settings: 111In-labeled peptide
[3] = in vivo stability studies in BALB/c mice; settings: i.v.
Description: Metabolic studies evaluating the stability of the radioligands were carried out in 7- to 8-week-old female BALB/c mice. With the ^111In-labeled peptide derivatives, the studies were performed for the time point of 10 min p.i. (n = 2). With the ^177Lu-labeled peptide derivatives, additional studies were also carried out for the time point of 30 min and 60 min p.i. (n = 1 for each time point). To allow monitoring of the metabolites by analytical HPLC, the mice were injected with a higher amount of radioactivity (6–9 MBq indium-111, 30–45 MBq lutetium-177) corresponding to ∼1 nmol total peptide intravenously through a lateral tail vein. At different time points, the mice were euthanized by cervical dislocation and urine and a blood sample was collected. Liver and kidneys were excised and homogenized in 20 mM HEPES buffer pH 7.3. The amount of intact radiopeptide and the formation of metabolites was analyzed by analytical HPLC. Prior to injection into the HPLC system, all samples were treated as described for human serum and rat organ homogenate samples.

[4] = tested on: A431-CCK2R/A431-mock xenografts; experiment: biodistribution in A431-CCK2R/A431-mock xenografted BALB/c nude mice; type: in vivo
Description: (§1) Biodistribution studies evaluating the tumor uptake of the radiolabeled peptides were performed in 7- to 9-week-old female athymic BALB/c nude mice (Charles River, Sulzfeld, Germany). For the induction of tumor xenografts, 150 μL of DMEM containing 2 × 10^6 A431-CCK2R and A431-mock cells were injected subcutaneously in the right and left flank of each mouse, respectively. And 10–14 days after injection, tumors reached a medium weight of ∼0.25 g. The mice were divided into groups of four and injected intravenously via a lateral tail vein with 0.2 MBq of ^111In-labeled compound (0.02 nmol) and 0.7 and 1.5 MBq of the ^177Lu-labeled compound (0.02 and 0.15 nmol). At 4 and 12 h p.i., the mice were sacrificed and the tumors and other tissues (blood, lung, heart, muscle, spleen, intestine, liver, kidneys, stomach, and pancreas) were removed, weighed, and their radioactivity measured in the γ counter together with the rest of the body. Initial biodistribution studies were performed with the three ^177Lu-labeled CCK2R-targeting ligands at an injected peptide amount of 20 pmol for the time point of 4 h p.i. From these studies, two peptide analogues were selected to further characterize the biodistribution profile also at a later time point of 12 h p.i. and at a higher injected peptide amount of 150 pmol. Additional animal studies were performed for the ^111In-labeled conjugates. Percentage of injected activity per gram tissue (%IA/g), tumor-to-organ activity ratios, as well as whole body activity were calculated for each sample and statistical analysis using independent two-population t-test (significance level p < 0.05) was performed using Origin software. For the comparison of more than two groups, data were analyzed using one-way analysis of variance (ANOVA) Holm–Bonferroni-adjusted post hoc analysis (significance level p < 0.05) using Microsoft Excel 2010 software (Microsoft Excel 2010, Microsoft Corporation, WA).

[5] = as above; type: in vivo; settings: female, athymic BALB/c nude, mouse, iv, 20 pmol, total radioactivity, 20 pmol, 4 h p.i.
Description: as §1

[6] = 4 h after incubation, read-out: protein binding (%) 4 h (converted)
[7] = 24 h after incubation, read-out: protein binding (%) 24 h (converted)

## CCCC[C@@H](C(=O)N[C@@H](CC(=O)O)C(=O)N[C@@H](Cc1cccc2ccccc12)C(N)=O)N(C)C(=O)[C@H](Cc1c[nH]c2ccccc12)NC(=O)CNC(=O)[C@H](Cc1ccc(O)cc1)NC(=O)[C@@H]1CCCN1C(=O)[C@@H](CCC(=O)O)NC(=O)CN1CCN(CC(=O)O)CCN(CC(=O)O)CCN(CC(=O)O)CC1 [[^111In]In-1, metal not drawn] ({DOTA}-[dE]PYGW[NMeNle]D[1Nal]-NH2)
[1]; [6]
  fraction unbound: 0.555
[1]; [7]
  fraction unbound: 0.472
[2]
  logD: -2.03

## CCCC[C@@H](C(=O)N[C@@H](CC(=O)O)C(=O)N[C@@H](Cc1cccc2ccccc12)C(N)=O)N(C)C(=O)[C@H](Cc1c[nH]c2ccccc12)NC(=O)CNC(=O)[C@@H]1CCCN1C(=O)[C@H](Cc1ccc(O)cc1)NC(=O)[C@@H](CCC(=O)O)NC(=O)CN1CCN(CC(=O)O)CCN(CC(=O)O)CCN(CC(=O)O)CC1 [[^111In]In-2, metal not drawn] ({DOTA}-[dE]YPGW[NMeNle]D[1Nal]-NH2)
[1]; [6]
  fraction unbound: 0.432
[1]; [7]
  fraction unbound: 0.466
[2]
  logD: -1.75

## CCCC[C@@H](C(=O)N[C@@H](CC(=O)O)C(=O)N[C@@H](Cc1cccc2ccccc12)C(N)=O)N(C)C(=O)[C@H](Cc1c[nH]c2ccccc12)NC(=O)CNC(=O)[C@@H]1CCCN1C(=O)[C@H](Cc1ccc(O)cc1)NC(=O)[C@@H](CCC(=O)O)NC(=O)CN1CCN(CC(=O)O)CCN(CC(=O)O)CCN(CC(=O)O)CC1 [[^111In]In-2] [metal not drawn] ({DOTA}-[dE]YPGW[NMeNle]D[1Nal]-NH2)
[3]; 10 min p.i.
  intact radiopeptide in blood: 82.3 ± 1.8%
  intact radiopeptide in kidneys: 30.2 ± 0.5%
  intact radiopeptide in liver: 73.9 ± 1.2%
  intact radiopeptide in urine: 30.3 ± 5.9%

## CCCC[C@@H](C(=O)N[C@@H](CC(=O)O)C(=O)N[C@@H](Cc1cccc2ccccc12)C(N)=O)N(C)C(=O)[C@H](Cc1c[nH]c2ccccc12)NC(=O)[C@@H]1CCCN1C(=O)[C@H](Cc1ccc(O)cc1)NC(=O)[C@H](C)NC(=O)[C@@H](CCC(=O)O)NC(=O)CN1CCN(CC(=O)O)CCN(CC(=O)O)CCN(CC(=O)O)CC1 [[^111In]In-3, metal not drawn] ({DOTA}-[dE]AYPW[NMeNle]D[1Nal]-NH2)
[1]; [6]
  fraction unbound: 0.588
[1]; [7]
  fraction unbound: 0.54
[2]
  logD: -2.05

## CCCC[C@@H](C(=O)N[C@@H](CC(=O)O)C(=O)N[C@@H](Cc1cccc2ccccc12)C(N)=O)N(C)C(=O)[C@H](Cc1c[nH]c2ccccc12)NC(=O)CNC(=O)[C@@H]1CCCN1C(=O)[C@H](Cc1ccc(O)cc1)NC(=O)[C@@H](CCC(=O)O)NC(=O)CN1CCN(CC(=O)O)CCN(CC(=O)O)CCN(CC(=O)O)CC1 [[^177Lu]Lu-2] [metal not drawn] ({DOTA}-[dE]YPGW[NMeNle]D[1Nal]-NH2)
[4]; 150 pmol, 4 h p.i.
  tumor uptake in A431-CCK2R xenografts: 15.26 ± 6.84 % IA/g
[4]; A431-CCK2R xenografts, 12 h p.i. relative to 4 h p.i., 20 pmol
  tumor retention: > 60%
[4]; injected peptide amount increased to 150 pmol vs 20 pmol, 4 h p.i.
  reduction of tumor uptake in A431-CCK2R xenografts: about 50%
[3]; 60 min p.i., n = 1
  intact radiopeptide in blood: 79.1%
  intact radiopeptide in kidneys: 11.0%
  intact radiopeptide in liver: 74.5%
  intact radiopeptide in urine: 18.8%

## CCCC[C@@H](C(=O)N[C@@H](CC(=O)O)C(=O)N[C@@H](Cc1cccc2ccccc12)C(N)=O)N(C)C(=O)[C@H](Cc1c[nH]c2ccccc12)NC(=O)[C@@H]1CCCN1C(=O)[C@H](Cc1ccc(O)cc1)NC(=O)[C@H](C)NC(=O)[C@@H](CCC(=O)O)NC(=O)CN1CCN(CC(=O)O)CCN(CC(=O)O)CCN(CC(=O)O)CC1 [[^177Lu]Lu-3, metal not drawn] ({DOTA}-[dE]AYPW[NMeNle]D[1Nal]-NH2)
[5]; A431-CCK2R xenograft tumor / blood, read-out: tumor-to-blood ratio
  tissue to tissue ratio at 4 h: 709 ± 470
[5]; A431-CCK2R xenograft tumor / kidney, read-out: tumor-to-kidney ratio
  tissue to tissue ratio at 4 h: 4.52 ± 1.41
[5]; A431-CCK2R xenograft tumor / liver, read-out: tumor-to-liver ratio
  tissue to tissue ratio at 4 h: 58 ± 19.2
[5]; A431-CCK2R xenograft tumor / stomach, read-out: tumor-to-stomach ratio
  tissue to tissue ratio at 4 h: 6.49 ± 1.32
[5]; A431-CCK2R xenograft tumor, read-out: tumor uptake in A431-CCK2R xenografts
  tissue uptake at 4 h: 28.6 ± 7.95 %ID/g
[5]; A431-mock xenograft tumor, read-out: uptake in A431-mock xenografts
  tissue uptake at 4 h: 0.25 ± 0.06 %ID/g
[5]; blood, read-out: uptake in blood
  tissue uptake at 4 h: 0.06 ± 0.03 %ID/g
[5]; heart, read-out: uptake in heart
  tissue uptake at 4 h: 0.08 ± 0.01 %ID/g
[5]; intestine, read-out: uptake in intestine
  tissue uptake at 4 h: 0.95 ± 0.23 %ID/g
[5]; kidney, read-out: uptake in kidney
  tissue uptake at 4 h: 6.61 ± 1.75 %ID/g
[5]; liver, read-out: uptake in liver
  tissue uptake at 4 h: 0.52 ± 0.12 %ID/g
[5]; lung, read-out: uptake in lung
  tissue uptake at 4 h: 0.17 ± 0.05 %ID/g
[5]; muscle, read-out: uptake in muscle
  tissue uptake at 4 h: 0.09 ± 0.05 %ID/g
[5]; pancreas, read-out: uptake in pancreas
  tissue uptake at 4 h: 1.78 ± 0.72 %ID/g
[5]; spleen, read-out: uptake in spleen
  tissue uptake at 4 h: 0.19 ± 0.02 %ID/g
[5]; stomach, read-out: uptake in stomach
  tissue uptake at 4 h: 4.73 ± 2.29 %ID/g
[3]; 60 min p.i., n = 1
  intact radiopeptide in blood: 63.5%
  intact radiopeptide in kidneys: 7.2%
  intact radiopeptide in liver: 35.6%
  intact radiopeptide in urine: 20.6%
